This note sets out measurements from publication PMC6391272, “Rex in Caldicellulosiruptor bescii: Novel regulon members and its effect on the production of ethanol and overflow metabolites” (MicrobiologyOpen, 2018).

The target of the assay is T1, Rex (recombinant Rex, rRex) (Caldicellulosiruptor bescii, UniProt B9MPL7).
T1 construct: E. coli T7 Express; purified with IMPACT kit protocol
T1 sequence (B9MPL7 1-217): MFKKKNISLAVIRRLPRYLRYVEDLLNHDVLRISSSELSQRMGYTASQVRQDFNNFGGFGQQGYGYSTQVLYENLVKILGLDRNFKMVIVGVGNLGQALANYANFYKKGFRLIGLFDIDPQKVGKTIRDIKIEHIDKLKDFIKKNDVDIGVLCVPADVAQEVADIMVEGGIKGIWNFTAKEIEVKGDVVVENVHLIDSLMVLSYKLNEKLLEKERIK
As to the kind of experiment: electromobility shift assay (biotin-labelled […] bp operator dsDNA). Conditions: room temperature, 30 min; loss of operator DNA binding; NADH/NAD+ cofactor pool 1-100 umol/L.

For `NC(=O)C1=CN([C@@H]2O[C@H](COP(=O)(O)OP(=O)(O)OC[C@H]3O[C@@H](n4cnc5c(N)ncnc54)[C@H](O)[C@@H]3O)[C@@H](O)[C@H]2O)C=CC1` [NADH], the “electromobility shift assay (biotin-labelled 50 bp operator dsDNA)” value is “DNA binding by Rex is disrupted by NADH and is sensitive to NADH/NAD ^+ ratio”.
